# From ChEMBL document CHEMBL1156686, “Xanthine oxidase-activated prodrugs of thymidine phosphorylase inhibitors” (Eur J Med Chem, 2008)
# Legend:
# [1] = target: T1, Xanthine dehydrogenase/oxidase (Bos taurus, UniProt P80457); settings: cattle
# [2] = Inhibition of horse liver recombinant thymidine phosphorylase; design: species or system Equus caballus
# [3] = target: T1, Xanthine dehydrogenase/oxidase; experiment: Inhibition of bovine xanthine oxidase using xanthine as a substrate
# [4] = target: T1, Xanthine dehydrogenase/oxidase; experiment: Inhibition of bovine xanthine oxidase using hypoxanthine as a substrate
# T1 sequence (P80457 whole entry): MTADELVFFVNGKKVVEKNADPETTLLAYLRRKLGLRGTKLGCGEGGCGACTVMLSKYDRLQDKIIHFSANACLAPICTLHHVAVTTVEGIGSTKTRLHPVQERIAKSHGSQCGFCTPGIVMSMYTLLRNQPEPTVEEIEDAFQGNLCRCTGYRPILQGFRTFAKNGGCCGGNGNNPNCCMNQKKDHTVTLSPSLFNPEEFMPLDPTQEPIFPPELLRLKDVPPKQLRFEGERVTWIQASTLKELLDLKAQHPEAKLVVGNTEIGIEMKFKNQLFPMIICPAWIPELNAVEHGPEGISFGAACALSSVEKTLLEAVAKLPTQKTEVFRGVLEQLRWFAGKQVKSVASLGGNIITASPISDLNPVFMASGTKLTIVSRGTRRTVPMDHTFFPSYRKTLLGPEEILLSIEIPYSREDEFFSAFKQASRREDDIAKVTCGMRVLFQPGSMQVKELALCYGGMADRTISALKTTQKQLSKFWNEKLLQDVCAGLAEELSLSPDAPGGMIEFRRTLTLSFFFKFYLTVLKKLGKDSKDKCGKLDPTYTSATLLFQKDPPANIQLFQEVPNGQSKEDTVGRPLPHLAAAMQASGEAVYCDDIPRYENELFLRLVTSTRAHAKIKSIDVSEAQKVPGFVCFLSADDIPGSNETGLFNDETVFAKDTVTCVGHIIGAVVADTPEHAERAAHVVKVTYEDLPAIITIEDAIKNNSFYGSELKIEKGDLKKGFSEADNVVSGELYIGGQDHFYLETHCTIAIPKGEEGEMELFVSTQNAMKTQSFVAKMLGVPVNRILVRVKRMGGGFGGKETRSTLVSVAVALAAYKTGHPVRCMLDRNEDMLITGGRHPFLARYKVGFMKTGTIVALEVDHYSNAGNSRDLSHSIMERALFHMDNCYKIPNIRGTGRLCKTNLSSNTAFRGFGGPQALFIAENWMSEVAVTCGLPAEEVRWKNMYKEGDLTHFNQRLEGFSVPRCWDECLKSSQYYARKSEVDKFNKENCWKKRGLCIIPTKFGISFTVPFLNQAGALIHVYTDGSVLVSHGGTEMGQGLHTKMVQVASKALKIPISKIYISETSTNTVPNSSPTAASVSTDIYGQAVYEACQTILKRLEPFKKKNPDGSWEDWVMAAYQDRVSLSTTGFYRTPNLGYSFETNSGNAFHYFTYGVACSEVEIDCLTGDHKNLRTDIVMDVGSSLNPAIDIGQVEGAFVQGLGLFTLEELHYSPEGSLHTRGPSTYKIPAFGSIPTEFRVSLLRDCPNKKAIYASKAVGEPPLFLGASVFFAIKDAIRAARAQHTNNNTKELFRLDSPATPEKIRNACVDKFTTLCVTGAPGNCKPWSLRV
Structure (SMILES),Km [1],also measured
Nc1ncncc1Br,44.4 µM,–
N=C1CCCN1Cc1nc[nH]c(=O)c1Cl,64.9 µM,–
Nc1[nH]c(=O)ncc1Br,32.5 µM,–
Nc1[nH]c(=O)[nH]c(=O)c1Br,–,IC50 [2]: 30 µM
O=c1[nH]c(=O)c2cc[nH]c2[nH]1 [7-DEAZAXANTHINE],–,Ki [3]: 70 µM; Ki [4]: 25 µM

# Continued, in another order:
Km [1],Structure (SMILES),also measured
45.1 µM,O=c1[nH]cnc2[nH]ccc12,–
29.8 µM,O=c1ncc2cc[nH]c2[nH]1,–
23.8 µM,Nc1nc[nH]c(=O)c1Br,–
